Measured values from patent US6410585B1, “Inhibitors of protein tyrosine phosphatase” (priority 1997, dated 2002).
Read-outs that look alike come from different tables or passages of the source.

Target: T1, rat PTP1 (Rattus norvegicus, UniProt P20417)
T1 construct: a C-terminal truncation of rat PTP1 (amino acid residues 1-322); GST (N, cleaved yes); made in house; host or cells: E. coli strain TG-1 (pGEX-2T)
T1 sequence (P20417 1-322): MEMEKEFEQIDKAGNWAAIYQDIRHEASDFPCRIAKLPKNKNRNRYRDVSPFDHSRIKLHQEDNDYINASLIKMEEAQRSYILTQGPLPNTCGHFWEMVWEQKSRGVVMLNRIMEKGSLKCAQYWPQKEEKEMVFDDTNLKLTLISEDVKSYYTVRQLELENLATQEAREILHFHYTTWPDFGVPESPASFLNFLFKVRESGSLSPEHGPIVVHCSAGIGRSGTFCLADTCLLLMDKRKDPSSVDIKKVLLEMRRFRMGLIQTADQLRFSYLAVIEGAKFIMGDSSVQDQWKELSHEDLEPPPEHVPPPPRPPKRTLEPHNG
Assay: PTP1 assay, pNPP hydrolysis (rate of change in A405)
Assay type: biochemical
Description: PTP1 Assays: A construct, which consisted of a C-terminal truncation of rat PTP1 (amino acid residues 1-322) (cloned from a rat brain library) with an N-terminal glutathione S-transferase (GST) tag and an adjacent thrombin cleavage site, was inserted into vector plasmid pGEX-2T and transformed into E. coli strain TG-1 under the control of a lac promoter (K. L. Guan and J. E. Dixon (1991) Eukaryotic proteins expressed in Escherichia coli: an improved thrombin cleavage and purification procedure of fusion proteins with glutathione S-transferase. Analyt. Biochem. 192: 262-267). The GST-fusion protein was purified on a glutathione agarose affinity column, the GST tag was cleaved with thrombin, and the active enzyme was recovered for use in an assay to identify PTP inhibitors.
PTP1 activity is measured using either p-nitrophenol phosphate (pNPP) or a triphosphopeptide (that matches residues 1142 through 1153 of the β-subunit and the insulin receptor) as substrate in a 96-well microtiter plate format. An assay pH of 7.2 is used for standard assays (measured 405=9800 at pH 7.2).
Standard assays are conducted at room temperature in a total volume of 0.2 ml that contains Hepes buffer (50 mM, pH 7.2), NaCl (50 mM), EDTA (1 mM), DTT (1 mM), bovine serum albumin (1 mg/ml), pNPP (1 mM) and PTP1 (35 ng/ml). Compounds (2 μl of 10 mM solutions) are pipetted into wells of microtiter plates followed by 198 μl of premixed reaction mix (with PTP1 and pNPP added immediately before use). The rate of change in A405 is recorded for 60 min. Two wells on each plate contain DMSO controls and two wells contain sodium orthovanadate (1 mM) which inhibits PTP1-catalyzed hydrolysis of pNPP completely. Data are expressed as percent inhibition relative to the average of the DMSO controls measured on the same microtiter plate.

[1] = inhibition of pNPP-hydrolysis, compound concentration 1 μM, read-out: % Inhibition
[2] = inhibition of pNPP-hydrolysis, compound concentration 10 μM, read-out: % Inhibition
[3] = inhibition of pNPP-hydrolysis, compound concentration 100 μM, read-out: % Inhibition
[4] = Conc 1 uM, pNPP hydrolysis, Table 1, read-out: PTP1 Inhib % Inhib
[5] = Conc 10 uM, pNPP hydrolysis, Table 1, read-out: PTP1 Inhib % Inhib
[6] = Conc 100 uM, pNPP hydrolysis, Table 1, read-out: PTP1 Inhib % Inhib
[7] = Conc 1 uM, pNPP hydrolysis, Table 2, read-out: PTP1 Inhib PTP1N. % Inhib
[8] = Conc 10 uM, pNPP hydrolysis, Table 2, read-out: PTP1 Inhib PTP1N. % Inhib
[9] = Conc 100 uM, pNPP hydrolysis, Table 2, read-out: PTP1 Inhib PTP1N. % Inhib

SMILES | inhibition at 1 µM [4] | inhibition at 10 µM [5] | inhibition at 100 µM [6] | also measured
CCCCCNC(=O)[C@H](Cc1ccc(OCC(=O)O)c(C(=O)O)c1)NC(=O)c1cnc(Cl)c(Cl)c1 [Example 154-2, 2-(carboxymethoxy)-5-[(2S)-2-{[(5,6-dichloro-3-pyridinyl)carbonyl]amino}-3-oxo-3-(pentylamino)propyl]benzoic acid] |  |  |  | inhibition at 1 µM [1]: 23%; inhibition at 10 µM [2]: 72%; inhibition at 100 µM [3]: 95%
CCCCCNC(=O)[C@H](Cc1ccc(OC(C(=O)O)C(=O)O)cc1)NC(=O)C1CCCCC1C(=O)O (stereo partly shown) | 3% | 13% | 62% | 
CCCCCNC(=O)C(Cc1ccc(OC(COO)COO)cc1)NC(=O)CCC(=O)O (stereo not shown) [drawing 101] |  |  |  | PTP1 Inhib % Inhib (Conc 1 uM, pNPP hydrolysis, Table 1): 3%; PTP1 Inhib % Inhib (Conc 10 uM, pNPP hydrolysis, Table 1): 4%; PTP1 Inhib % Inhib (Conc 100 uM, pNPP hydrolysis, Table 1): 39%
CCCCCNC(=O)C(Cc1ccc(OC(COO)COO)cc1)NC(=O)C(Cc1ccc(OC(C)(C)C)cc1)NC(=O)OC(C)(C)C (stereo not shown) |  |  |  | inhibition at 1 µM [7]: 5%; inhibition at 10 µM [8]: 36%; inhibition at 100 µM [9]: 89%
O=C(O)COc1ccc(C[C@H](NC(=O)c2ccc(Cl)cc2)C(=O)NCCCCc2ccccc2)cc1C(=O)O [Example 154-9, 2-(carboxymethoxy)-5-{(2S)-2-[(4-chlorobenzoyl)amino]-3-oxo-3-[(4-phenylbutyl)amino]propyl}benzoic acid] |  |  |  | inhibition at 1 µM [1]: 37%; inhibition at 10 µM [2]: 85%; inhibition at 100 µM [3]: 97%
CCCCCNC(=O)[C@H](Cc1ccc(OCC(=O)O)c(C(=O)O)c1)NC(=O)[C@H](Cc1ccccc1)NC(=O)Oc1ccccc1 [Example 158, 2-(Carboxymethoxy)-5-[(2S)-3-oxo-3-(pentylamino)-2-({(2S)-2-[(phenoxycarbonyl)amino]-3-phenylpropanoyl}amino)propyl]benzoic Acid] |  |  |  | Ki (calculated from IC50-values obtained from a dose-response curve using the inhibition assay): 870 nM; inhibition at 1 µM [1]: 43%; inhibition at 10 µM [2]: 85%; inhibition at 100 µM [3]: 97%
CCCCCCCCCCNC(=O)C(Cc1ccc(OC(COO)COO)cc1)NC(=O)CCC(=O)O (stereo not shown) | 4% | 3% | 51% | 
NS(=O)(=O)c1ccc(CCNC(=O)C(Cc2ccc(OC(COO)COO)cc2)NC(=O)CCC(=O)O)cc1 (stereo not shown) | 4% | 19% | 63% | 
O=C(O)COc1ccc(C[C@H](NC(=O)c2ccccc2)C(=O)NCCCCc2ccc(Cl)cc2)cc1C(=O)O [Example 154-19, 5-((2S)-2-(benzoylamino)-3-{[4-(4-chlorophenyl)butyl]amino}-3-oxopropyl)-2-(carboxymethoxy)benzoic acid] |  |  |  | inhibition at 1 µM [1]: 40%; inhibition at 10 µM [2]: 55%; inhibition at 100 µM [3]: 98%
CCCCCNC(=O)C(Cc1ccc(OC(COO)COO)cc1)NC(=O)C(Cc1ccc(OCc2c(Cl)cccc2Cl)cc1)NC(=O)CCC(=O)O (stereo not shown) |  |  |  | inhibition at 1 µM [7]: 11%; inhibition at 10 µM [8]: 70%; inhibition at 100 µM [9]: 98%
CCCCCNC(=O)C(Cc1ccc(OC(COO)COO)cc1)NC(=O)C(Cc1ccc(OCc2c(Cl)cccc2Cl)cc1)NC(=O)OC(C)(C)C (stereo not shown) |  |  |  | inhibition at 1 µM [7]: 3%; inhibition at 10 µM [8]: 12%; inhibition at 100 µM [9]: 85%
CCCCCNC(=O)[C@H](Cc1ccc(OC(C(=O)O)C(=O)O)cc1)NC(=O)CC1(CC(=O)O)CCCC1 | 2% | 20% | 72% | 
O=C(O)CCC(=O)NC(Cc1ccc(OC(COO)COO)cc1)C(=O)NCc1ccc2c(c1)OCO2 (stereo not shown) | 12% | 24% | 63% | 
CCCCCNC(=O)[C@H](Cc1ccc(OC(C(=O)O)C(=O)O)cc1)NC(=O)C1CC1C(=O)O (stereo partly shown) | 0% | 11% | 57% | 
CCCCCNC(=O)C(Cc1ccc(OC(C(=O)O)C(=O)O)c(F)c1)NC(=O)CCC(=O)O (stereo not shown) |  |  |  | inhibition at 1 µM [7]: 4%; inhibition at 10 µM [8]: 29%; inhibition at 100 µM [9]: 78%
CCCCCNC(=O)[C@H](Cc1ccc(OC(C(=O)O)C(=O)O)cc1)NC(=O)[C@H](CCC(=O)O)NC(=O)OC(C)(C)C | 5% | 34% | 83% | 
O=C(O)COc1ccc(C[C@H](NS(=O)(=O)/C=C/c2ccccc2)C(=O)NCCCCc2ccc(Cl)cc2)cc1C(=O)O [Example 156-7, 2-(carboxymethoxy)-5-[(2S)-3-{[4-(4-chlorophenyl)butyl]amino}-3-oxo-2-({[(E)-2-phenylethenyl]sulfonyl}amino)propyl]benzoic acid] |  |  |  | inhibition at 1 µM [1]: 18%; inhibition at 10 µM [2]: 69%; inhibition at 100 µM [3]: 95%
CC(C)OCCCNC(=O)[C@H](Cc1ccc(OCC(=O)O)c(C(=O)O)c1)NC(=O)[C@H](Cc1ccccc1)NC(=O)OC(C)(C)C [Example 157-16, 5-{(2S)-2-({(2S)-2-[(tert-Butoxycarbonyl)amino]-3-phenylpropanoyl}amino)-3-[(3-isopropoxypropyl)amino]-3-oxopropyl}-2-(carboxymethoxy)benzoic Acid] |  |  |  | inhibition at 1 µM [1]: 38%; inhibition at 10 µM [2]: 83%; inhibition at 100 µM [3]: 97%
COc1ccc(CCCCNC(=O)[C@H](Cc2ccc(OCC(=O)O)c(C(=O)O)c2)NC(=O)c2ccc(Cl)nc2)cc1 [Example 154-34, 2-(carboxymethoxy)-5-((2S)-2-{[(6-chloro-3-pyridinyl)carbonyl]amino}-3-{[4-(4-methoxyphenyl)butyl]amino}-3-oxopropyl)benzoic acid] |  |  |  | inhibition at 1 µM [1]: 26%; inhibition at 10 µM [2]: 77%; inhibition at 100 µM [3]: 96%
CCCCC/C=C/[C@H](Cc1ccc(OC(C(=O)O)C(=O)O)cc1)NC(=O)CCC(=O)O |  |  |  | inhibition at 1 µM [7]: 1%; inhibition at 10 µM [8]: 14%; inhibition at 100 µM [9]: 70%
CC(C)(C)OC(=O)N[C@@H](Cc1ccccc1)C(=O)N[C@@H](Cc1ccc(OCC(=O)O)c(C(=O)O)c1)C(=O)NCCCO [Example 157-21, 5-{(2S)-2-({(2S)-2-[(tert-Butoxycarbonyl)amino]-3-phenylpropanoyl}amino)-3-[(3-hydroxypropyl)amino]-3-oxopropyl}-2-(carboxymethoxy)benzoic Acid] |  |  |  | inhibition at 1 µM [1]: 24%; inhibition at 10 µM [2]: 73%; inhibition at 100 µM [3]: 95%

The next lines start with results.

inhibition at 1 µM [4] | inhibition at 10 µM [5] | inhibition at 100 µM [6] | SMILES | also measured
0% | 1% | 34% | CCCCCNC(=O)C(Cc1ccc(OC(CCOO)COO)cc1)NC(=O)CCC(=O)O (stereo not shown) | 
3% | 25% | 75% | CCCCCNC(=O)C(Cc1ccc(OC(COO)COO)cc1)NC(=O)N(CC(=O)O)Cc1ccccc1 (stereo not shown) | 
5% | 29% | 79% | CCCCCNC(=O)[C@H](Cc1ccc(OC(C(=O)O)C(=O)O)cc1)NC(=O)CCc1ccc(CC(C(=O)O)C(=O)O)cc1 | 
42% | 87% | 98% | CCCCCNC(=O)C(Cc1ccc(OC(COO)COO)cc1)NC(=O)C(Cc1ccc(C(=O)c2ccccc2)cc1)NC(=O)CCC(=O)O (stereo not shown) [drawing 133] | 
2% | 17% | 67% | CCCCCNC(=O)[C@H](Cc1ccc(OC(C(=O)O)C(=O)O)cc1)NC(=O)CCCC(=O)O | 
10% | 51% | 90% | CCCCCNC(=O)[C@H](Cc1ccc(OC(C(=O)O)C(=O)O)cc1)NC(=O)C(CC(=O)O)NC(=O)OCc1ccccc1 (stereo partly shown) | 
16% | 64% | 94% | CCCCCNC(=O)C(Cc1ccc(OC(COO)COO)cc1)NC(=O)Nc1cc(C(=O)O)cc(C(=O)O)c1 (stereo not shown) | 
4% | 9% | 39% | CCCCCNC(=O)C(Cc1ccc(OC(COO)COO)cc1)NC(=O)CCC(=O)OCc1ccccc1 (stereo not shown) | 
13% | 53% | 90% | CCCCCNC(=O)[C@H](Cc1ccc(OC(C(=O)O)C(=O)O)cc1)NC(=O)C(CC(=O)O)NC(=O)OC(C)(C)C (stereo partly shown) | 
